The record followed here is publication PMC8855934 (Journal of medicinal chemistry, 2021).

One data set can be described thus: Oral exposures in mice. The class given is in vivo. The settings on record: oral gavage, non-tumor-bearing male mice (Table S1).
For a further data set, the system named is VCaP cell line. In words: Cell growth inhibition in the VCaP cell line. The class given is cell-based, human.

For the compound `N#Cc1ccc(O[C@H]2CC[C@H](NC(=O)c3ccc(NCCCCCNc4ccc5c(c4)C(=O)N(C4CCC(=O)NC4=O)C5=O)cc3)CC2)cc1Cl` (stereo partly drawn) [Compound 13, N-((1R,4R)-4-(3-Chloro-4-cyanophenoxy)cyclohexyl)-4-((5-((2-(2,6-dioxopiperidin-3-yl)-1,3-dioxoisoindolin-5-yl)amino)pentyl)-amino)benzamide], the “oral exposures in mice” value in “Oral exposures in mice” is “very low”.
As to `N#Cc1ccc(N[C@H]2CC[C@H](NC(=O)c3ccc(N4CCC(N5CCN(c6ccc7c(c6)C(=O)N(C6CCC(=O)NC6=O)C7=O)CC5)CC4)cc3)CC2)cc1Cl` (stereo partly drawn) [Compound 34, N-(1R,4R)-4-(((3-Chloro-4-cyanophenyl)amino)cyclohexyl)-4-(4-(4-(2-(2,6-dioxopiperidin-3-yl)-1,3-dioxoisoindolin-5-yl)piperazin-1-yl)piperidin-1-yl)benzamide], in the data set on VCaP cell line, the “times less potent than compounds 35 and 36 (cell growth inhibition)” value is on record as ~10.
Same read-out and setting: next, `CCCN(c1ccc(C#N)c(Cl)c1)[C@H]1CC[C@H](NC(=O)c2ccc(N3CCC(N4CCN(c5ccc6c(c5)C(=O)N(C5CCC(=O)NC5=O)C6=O)CC4)CC3)cc2)CC1` (stereo partly drawn) [Compound 37, N-(1R,4R)-4-(((3-Chloro-4-cyanophenyl)(propyl)amino)-cyclohexyl)-4-(4-(4-(2-(2,6-dioxopiperidin-3-yl)-1,3-dioxoisoindolin-5-yl)piperazin-1-yl)piperidin-1-yl)benzamide]: > 40.
